Laboratory results taken from patent EP0647227B1, “PURINONE ANTIANGINAL AGENTS” (Pfizer Limited, priority 1992, dated 1994).

Test system: calcium/calmodulin (Ca/CAM)-independent cGMP PDE
Assay: Phosphodiesterase activity: in vitro PDE inhibition, modified "batch" method of Thompson and Appleman
Assay type: biochemical, rabbit
Settings: selectivity between Ca/CAM-independent cGMP PDE and cGMP-inhibited cAMP PDE (cAMP IC50 / cGMP IC50)
Description: The calcium/calmodulin (Ca/CAM)-independent cGMP PDE and the cGMP-inhibited cAMP PDE enzymes are obtained from rabbit platelets whilst, of the four major PDE enzymes of the rat kidney, the Ca/CAM-dependent cGMP PDE (fraction I) is isolated.

CCCn1cnc2c(=O)[nH]c(-c3cc(S(=O)(=O)N4CCNCC4)ccc3OCC)nc21 [Example 2, 2-[2-Ethoxy-5-(1-piperazinylsulphonyl)phenyl]-9-n-propylpurin-6-one] was tested, and the “SELECTIVITY RATIO” value was 6,250.
For CCCn1cnc2c(=O)[nH]c(-c3cc(S(=O)(=O)N4CCN(C)CC4)ccc3OCC)nc21 [Example 3, 2-[2-Ethoxy-5-(4-methyl-1-piperazinylsulphonyl)phenyl]-9-n-propylpurin-6-one], the “S[…]” value was 12,500.
With CCCn1cnc2c(=O)[nH]c(-c3ccccc3OCC)nc21 [Example 1, 2-(2-Ethoxyphenyl)-9-n-propylpurin-6-one] the “SELECTIVITY RATIO” value was >1,030.
